Data as given in article PMC7914897, “Cytotoxic Potential of a-Azepano- and 3-Amino-3,4-SeCo-Triterpenoids” (International Journal of Molecular Sciences, 2021).
Where two headings read alike, the source gives them in different places.

What was measured:
SF-539 (CNS cancer) = experiment: NCI-60 screen (SRB, 48 h); details: Homo sapiens; for GI50: SF-539
HT29 (Colon cancer) = experiment: NCI-60 screen (SRB, 48 h); details: Homo sapiens; for GI50: HT-29; for IC (TGI): HT-29, 48 h, read-out: TGI
UO-31 (Renal cancer) = experiment: NCI-60 screen (SRB, 48 h); details: Homo sapiens; for GI50: UO-31; for IC (TGI): UO-31, 48 h, read-out: TGI
BT-549 (Breast cancer) = experiment: NCI-60 screen (SRB, 48 h); type: cell-based; details: Homo sapiens; for IC (TGI): BT-549, 48 h
SK-MEL-2 (Melanoma) = experiment: NCI-60 screen (SRB, 48 h); details: Homo sapiens; for GI50: SK-MEL-2; for IC (TGI): SK-MEL-2, 48 h, read-out: TGI
Melanoma subpanel = experiment: NCI-60 screen, subpanel; details: Homo sapiens; for IC (TGI): 48 h, read-out: TGI MG_MID; for GI50: read-out: GI50 MG_MID
HCT-116 (Colon cancer) = experiment: NCI-60 screen (SRB, 48 h); details: Homo sapiens; for GI50: HCT-116; for IC (TGI): HCT-116, 48 h, read-out: TGI
MDA-MB-435 (Melanoma) = experiment: NCI-60 screen (SRB, 48 h); type: cell-based
NSC lung cancer subpanel = experiment: NCI-60 screen, subpanel; details: Homo sapiens; for IC (TGI): 48 h, read-out: TGI MG_MID; for GI50: read-out: GI50 MG_MID
Prostate cancer subpanel = experiment: NCI-60 screen, subpanel; details: Homo sapiens; for IC (TGI): 48 h, read-out: TGI MG_MID; for GI50: read-out: GI50 MG_MID
CCRF-CEM (Leukemia) = experiment: NCI-60 screen (SRB, 48 h); details: Homo sapiens; for CC50: read-out: LC50
SF-295 (CNS cancer) = experiment: NCI-60 screen (SRB, 48 h); details: Homo sapiens; for GI50: SF-295; for IC (TGI): SF-295, 48 h, read-out: TGI
KM12 (Colon cancer) = experiment: NCI-60 screen (SRB, 48 h); details: Homo sapiens; for GI50: KM12; for IC (TGI): KM12, 48 h, read-out: TGI
A498 (Renal cancer) = experiment: NCI-60 screen (SRB, 48 h); details: Homo sapiens; for GI50: A498; for IC (TGI): A498, 48 h, read-out: TGI; for CC50: A498, read-out: LC50
[1] = tested on: NIH 3T3 (non-malignant mouse fibroblasts); experiment: SRB cytotoxicity assay, 72 h; type: cell-based; details: Mus musculus, NIH3T3; NIH 3T3, 72 h, cut-off 30 µM; read-out: EC50
Procedure, shortened: (§1)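 Exponentially growing cells were seeded to avoid confluence, then exposed after 24 h to serial compound dilutions (0–30 µM; DMSO ≤0.5%) for 72 h. Cells were fixed with 10% TCA at 4 °C, stained with 0.4% SRB, and bound dye dissolved in 10 mM Tris base was read at 570 nm. EC50 came from survival relative to untreated controls.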

SN12C (Renal cancer) = experiment: NCI-60 screen (SRB, 48 h); details: for IC (TGI): 48 h, read-out: TGI
MCF7 (Breast cancer) = experiment: NCI-60 screen (SRB, 48 h); details: Homo sapiens; for GI50: MCF7
K-562 (Leukemia) = experiment: NCI-60 screen (SRB, 48 h); details: Homo sapiens; for GI50: K562; for CC50: K562, read-out: LC50
CNS cancer subpanel = experiment: NCI-60 screen, subpanel; details: Homo sapiens; for IC (TGI): 48 h, read-out: TGI MG_MID; for GI50: read-out: GI50 MG_MID
[2] = tested on: A2780 (ovarian carcinoma); experiment: SRB cytotoxicity assay, 72 h; type: cell-based, human; details: Homo sapiens; A2780, 72 h, cut-off 30 µM; read-out: EC50
Procedure, shortened: as §1

[3] = tested on: A375 (malignant melanoma); experiment: SRB cytotoxicity assay, 72 h; type: cell-based, human; details: Homo sapiens, A-375, 72 h, A375, 72 h, cut-off 30 µM; read-out: EC50
Procedure, shortened: as §1

MCF-7 (breast carcinoma) = experiment: SRB cytotoxicity assay, 72 h; type: cell-based, human; details: Homo sapiens, MCF7; MCF-7, 72 h, cut-off 30 µM; read-out: EC50
Procedure, shortened: as §1

[4] = tested on: HT29 (colorectal carcinoma); experiment: SRB cytotoxicity assay, 72 h; type: cell-based, human; details: Homo sapiens, HT-29; HT29, 72 h, cut-off 30 µM; read-out: EC50
Procedure, shortened: as §1

[5] = tested on: FaDu (hypopharyngeal carcinoma); experiment: SRB cytotoxicity assay, 72 h; type: cell-based, human; details: Homo sapiens, cut-off 30 µM, read-out: EC50
Procedure, shortened: as §1

MALME-3M (Melanoma) = experiment: NCI-60 screen (SRB, 48 h); details: Homo sapiens; for IC (TGI): 48 h, read-out: TGI

Structure (SMILES): C=C(C)[C@@H]1CC[C@]2(C)[C@H](CC=C3[C@@H]4[C@@H](C)[C@H](C)CC[C@]4(CO)CC[C@]32C)[C@@]1(C)CCCN [Compound 19]
- GI50 (SF-539 (CNS cancer)): 950 nM
- IC (TGI) (SF-539 (CNS cancer); SF-539, 48 h, read-out: TGI): 1.73 µM
- CC50 (SF-539 (CNS cancer); SF-539, read-out: LC50): 3.17 µM
- GI50 (HT29 (Colon cancer)): 990 nM
- IC (TGI) (HT29 (Colon cancer)): 2.04 µM
- CC50 (HT29 (Colon cancer); HT-29, read-out: LC50): 4.22 µM
- GI50 (UO-31 (Renal cancer)): 820 nM
- IC (TGI) (UO-31 (Renal cancer)): 2.24 µM
- CC50 (UO-31 (Renal cancer); UO-31, read-out: LC50): 9.64 µM
- GI50 (BT-549 (Breast cancer); BT-549): 2560 nM
- IC (TGI) (BT-549 (Breast cancer)): 9.23 µM
- CC50 (BT-549 (Breast cancer); BT-549, read-out: LC50 (the source's name)): 23.3 µM
- GI50 (SK-MEL-2 (Melanoma)): 1730 nM
- IC (TGI) (SK-MEL-2 (Melanoma)): 5.04 µM
- CC50 (SK-MEL-2 (Melanoma); SK-MEL-2, read-out: LC50): 18.5 µM
- IC (TGI) (Melanoma subpanel): 3.3 µM
- GI50 (Melanoma subpanel): 1540 nM
- CC50 (Melanoma subpanel; read-out: LC50 MG_MID): 7.68 µM
- GI50 (HCT-116 (Colon cancer)): 810 nM
- IC (TGI) (HCT-116 (Colon cancer)): 1.54 µM
- CC50 (HCT-116 (Colon cancer); HCT-116, read-out: LC50): 2930 nM
- GI50 (MDA-MB-435 (Melanoma); Homo sapiens, MDA-MB-435): 950 nM
- IC (TGI) (MDA-MB-435 (Melanoma); Homo sapiens, MDA-MB-435, 48 h, read-out: TGI): 1.81 µM
- CC50 (MDA-MB-435 (Melanoma); Homo sapiens, MDA-MB-435; read-out: LC50 (the source's name)): 3.45 µM
- IC (TGI) (NSC lung cancer subpanel): 5.16 µM
- GI50 (NSC lung cancer subpanel): 1840 nM
- CC50 (NSC lung cancer subpanel; read-out: LC50 MG_MID): 27 µM
- IC (TGI) (Prostate cancer subpanel): 5.25 µM
- GI50 (Prostate cancer subpanel): 1430 nM
- CC50 (Prostate cancer subpanel; read-out: LC50 MG_MID): 18.7 µM
- GI50 (CCRF-CEM (Leukemia)): 1310 nM
- IC (TGI) (CCRF-CEM (Leukemia); 48 h, read-out: TGI): 5.26 µM
- CC50 (CCRF-CEM (Leukemia)): > 50 µM
- GI50 (SF-295 (CNS cancer)): 850 nM
- IC (TGI) (SF-295 (CNS cancer)): 1.58 µM
- CC50 (SF-295 (CNS cancer); SF-295, read-out: LC50): 2940 nM
- GI50 (KM12 (Colon cancer)): 910 nM
- IC (TGI) (KM12 (Colon cancer)): 1.65 µM
- CC50 (KM12 (Colon cancer); KM12, read-out: LC50): 3000 nM
- GI50 (A498 (Renal cancer)): 3830 nM
- IC (TGI) (A498 (Renal cancer)): 11.2 µM
- CC50 (A498 (Renal cancer)): 27.7 µM
- EC50 [1]: 4.64 ± 0.6 µM
- GI50 (SN12C (Renal cancer); Homo sapiens): 840 nM
- IC (TGI) (SN12C (Renal cancer); Homo sapiens): 1.67 µM
- CC50 (SN12C (Renal cancer); Homo sapiens, read-out: LC50): 3.34 µM
- GI50 (MCF7 (Breast cancer)): 830 nM
- IC (TGI) (MCF7 (Breast cancer); MCF7, 48 h, read-out: TGI): 1.73 µM
- GI50 (K-562 (Leukemia)): 1220 nM
- IC (TGI) (K-562 (Leukemia); K562, 48 h, read-out: TGI): 3.63 µM
- CC50 (K-562 (Leukemia)): > 50 µM
- IC (TGI) (CNS cancer subpanel): 3.26 µM
- GI50 (CNS cancer subpanel): 1150 nM
- CC50 (CNS cancer subpanel; read-out: LC50 MG_MID): 12.6 µM
- EC50 [2]: 3300 ± 200 nM
- EC50 [3]: 2970 ± 200 nM
- EC50 (MCF-7 (breast carcinoma)): 2050 ± 200 nM
- EC50 [4]: 1840 ± 200 nM
- EC50 [5]: 2950 ± 400 nM
- GI50 (MALME-3M (Melanoma)): 730 nM
- IC (TGI) (MALME-3M (Melanoma)): 1.42 µM
- CC50 (MALME-3M (Melanoma); read-out: LC50): 2740 nM

Structure (SMILES): C=C(C)[C@@H]1CC[C@]2(COS(=O)(=O)c3ccc(C)cc3)CC[C@]3(C)[C@@H](CC[C@@H]4[C@@]5(C)CCCNC(C)(C)[C@@H]5CC[C@]43C)[C@@H]12 [Compound 12]
- GI50 (SF-539 (CNS cancer)): 1700 nM
- GI50 (HT29 (Colon cancer)): 1930 nM
- IC (TGI) (HT29 (Colon cancer)): 3.5 µM
- GI50 (UO-31 (Renal cancer)): 1640 nM
- IC (TGI) (UO-31 (Renal cancer)): 3.04 µM
- GI50 (BT-549 (Breast cancer); BT-549): 1840 nM
- IC (TGI) (BT-549 (Breast cancer)): 3.56 µM
- GI50 (SK-MEL-2 (Melanoma)): 1840 nM
- IC (TGI) (SK-MEL-2 (Melanoma)): 3.32 µM
- IC (TGI) (Melanoma subpanel): 3.42 µM
- GI50 (Melanoma subpanel): 1870 nM
- GI50 (HCT-116 (Colon cancer)): 1790 nM
- IC (TGI) (HCT-116 (Colon cancer)): 3.33 µM
- IC (TGI) (MDA-MB-435 (Melanoma); Homo sapiens, MDA-MB-435, 48 h; read-out: TGI): 3.19 µM
- GI50 (MDA-MB-435 (Melanoma); Homo sapiens, MDA-MB-435; read-out: GI50): 1730 nM
- IC (TGI) (NSC lung cancer subpanel): 3.25 µM
- GI50 (NSC lung cancer subpanel): 1710 nM
- IC (TGI) (Prostate cancer subpanel): 3.15 µM
- GI50 (Prostate cancer subpanel): 1670 nM
- GI50 (CCRF-CEM (Leukemia)): 2280 nM
- CC50 (CCRF-CEM (Leukemia)): > 100 µM
- GI50 (SF-295 (CNS cancer)): 1600 nM
- IC (TGI) (SF-295 (CNS cancer)): 3.01 µM
- GI50 (KM12 (Colon cancer)): 1840 nM
- IC (TGI) (KM12 (Colon cancer)): 3.41 µM
- GI50 (A498 (Renal cancer)): 1630 nM
- IC (TGI) (A498 (Renal cancer)): 3.14 µM
- CC50 (A498 (Renal cancer)): 6.04 µM
- EC50 [1]: 1.94 ± 0.2 µM
- Growth % of the Most Sensitive Cell Lines (SN12C (Renal cancer); 1 dose 10 µM): −94.44%
- GI50 (SN12C (Renal cancer); Homo sapiens): 1880 nM
- IC (TGI) (SN12C (Renal cancer); Homo sapiens): 3.37 µM
- GI50 (MCF7 (Breast cancer)): 1450 nM
- GI50 (K-562 (Leukemia)): 1570 nM
- CC50 (K-562 (Leukemia)): > 100 µM
- IC (TGI) (CNS cancer subpanel): 3.49 µM
- GI50 (CNS cancer subpanel): 1790 nM
- EC50 [2]: 1680 ± 100 nM
- EC50 [3]: 2030 ± 100 nM
- EC50 (MCF-7 (breast carcinoma)): 1630 ± 100 nM
- EC50 [4]: 1960 ± 300 nM
- EC50 [5]: 1590 ± 100 nM
- GI50 (MALME-3M (Melanoma)): 1840 nM
- IC (TGI) (MALME-3M (Melanoma)): 3.79 µM
